Measurements: patent publication US12263172B2, “Toll-like receptor agonists for use in the treatment of hepatitis b” (priority 2019, dated 2025)
pIC50: −log10 of the molar value.

How the values were obtained:
[1] = in vitro plasma protein binding; assay type: in vitro ADME; details: human, animals and humans
Excerpt: (§1) Exposure increased more than dose-proportionally at low doses. Variability in exposure was high. • In vitro plasma protein binding was between 79.6% and 94.2% in animals and humans. Volume of distribution after intravenous dosing was high. […] Main metabolic pathways were oxygenation, hydrogenation, dehydrogenation, dealkylation, acetylation, glucuronidation, and/or glutathione conjugation. • In rats, >80% of drug-related material was found in feces, 11% to 20% in bile, and <4% in urine. […] There were no effects on embryofetal development up to 1 mg/kg/dose in rats and 30 mg/kg/dose in rabbits.

[2] = target: T1, organic ion transporter 2 (OCT2) (Homo sapiens, UniProt O15244); test: OCT2 inhibition in vitro; assay type: in vitro ADME
T1 sequence (O15244 1-555): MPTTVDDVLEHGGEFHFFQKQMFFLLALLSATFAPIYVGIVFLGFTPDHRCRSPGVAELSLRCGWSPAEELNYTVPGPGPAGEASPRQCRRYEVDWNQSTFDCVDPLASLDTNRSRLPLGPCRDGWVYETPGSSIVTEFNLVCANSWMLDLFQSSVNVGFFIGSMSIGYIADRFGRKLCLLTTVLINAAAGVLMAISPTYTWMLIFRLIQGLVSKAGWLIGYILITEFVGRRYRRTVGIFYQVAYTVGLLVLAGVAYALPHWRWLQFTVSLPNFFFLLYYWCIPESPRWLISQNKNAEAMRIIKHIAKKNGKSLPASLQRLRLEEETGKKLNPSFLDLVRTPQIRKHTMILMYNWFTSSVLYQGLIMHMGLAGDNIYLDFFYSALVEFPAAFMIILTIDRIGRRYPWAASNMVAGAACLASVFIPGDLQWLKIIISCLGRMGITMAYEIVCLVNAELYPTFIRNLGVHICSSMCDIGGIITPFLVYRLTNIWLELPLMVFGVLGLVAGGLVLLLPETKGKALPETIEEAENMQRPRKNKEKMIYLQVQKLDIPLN
Excerpt: as §1

[3] = 6-month toxicity study in Cynomolgus monkeys; details: cynomolgus monkey, in vivo
Excerpt: as §1

[4] = Phase 1 multiple dose (Part 2): safety and tolerability in healthy adults; assay type: in vivo, human; details: 1.25 mg qw fasted
Procedure: All volunteers were followed up for 4 weeks and safety and tolerability were continuously assessed throughout the study. All adverse events (AEs) were recorded from the time of consent to the completion visit and were graded using the DAIDS toxicity grading scale. Volunteers also underwent physical examinations, electrocardiograms, vital sign checks and clinical laboratory parameters (chemistry, haematology, urinalysis).

Structure (SMILES): CCCCOc1nc(N)c2[nH]cc(Cc3ccc(CN4CCCC4)cc3)c2n1 [Compound 4]
- fraction unbound [1]: 0.058 to 0.204
- pIC50 [2]: 5.30
- NOAEL at 6 months ([3]; q2w): 4.5 mg/kg
- NOAEL at 6 months ([3]; qw): 3 mg/kg
- AUC(0-t) ([3]; 3.0 mg/kg qw or 4.5 mg/kg q2w, read-out: AUC24h at NOAEL): 13.2 to 44.8 ng·h/mL
- Cmax ([3]; 3.0 mg/kg qw or 4.5 mg/kg q2w, read-out: Cmax at NOAEL): 2.56 to 16.4 ng/mL
- ECG actual value: Heart rate (bpm) Low [4]: 0 n (%)
- ECG actual value: QTcB (ms) ]450; 480] [4]: 1 (16.7%) n (%)
- ECG change from reference: QTcB (ms) >60 [4]: 1 (16.7%) n (%)
- ECG change from reference: QTcB (ms) [30; 60] [4]: 1 (16.7%) n (%)
- ECG change from reference: QTcF (ms) [30; 60] [4]: 1 (16.7%) n (%)
- lab toxicity: Amylase (U/L), upwards, Grade 1 [4]: 2 (33.3%) n (%)
- lab toxicity: Amylase (U/L), upwards, Grade 2 [4]: 0 n (%)
- lab toxicity: Aspartate aminotransferase (U/L), upwards, Grade 1 [4]: 1 (16.7%) n (%)
- lab toxicity: Aspartate aminotransferase (U/L), upwards, Grade 2 [4]: 1 (16.7%) n (%)
- lab toxicity: Cholesterol (mmol/L), upwards, Grade 1 [4]: 1 (16.7%) n (%)
- lab toxicity: Creatine kinase (U/L), upwards, Grade 3 [4]: 1 (16.7%) n (%)
- lab toxicity: Creatine kinase (U/L), upwards, Grade 4 [4]: 1 (16.7%) n (%)
- lab toxicity: GFR from creatinine adjusted for BSA (mL/s/1.73m^2), downwards, Grade 2 [4]: 1 (16.7%) n (%)
- lab toxicity: Glucose (mmol/L), upwards, Grade 1 [4]: 4 (66.7%) n (%)
- lab toxicity: Glucose (mmol/L), upwards, Grade 2 [4]: 2 (33.3%) n (%)
- lab toxicity: Potassium (mmol/L), upwards, Grade 1 [4]: 1 (16.7%) n (%)
- lab toxicity: Sodium (mmol/L), upwards, Grade 1 [4]: 0 n (%)
- lab toxicity: Triglycerides (mmol/L), upwards, Grade 1 [4]: 1 (16.7%) n (%)
- lab toxicity: Triglycerides (mmol/L), upwards, Grade 2 [4]: 2 (33.3%) n (%)
- subjects with at least one AE [4]: 6 (100%) n (%)
- subjects with at least one AE for which any study drug or study was permanently stopped [4]: 1 (16.7%) n (%)
- subjects with at least one AE for which any study drug or study was temporarily stopped [4]: 0 n (%)
- subjects with at least one AE possibly related to any study drug [4]: 2 (33.3%) n (%)
- subjects with at least one AE possibly, probably or very likely related to any study drug [4]: 3 (50.0%) n (%)
- subjects with at least one AE probably related to any study drug [4]: 1 (16.7%) n (%)
- subjects with at least one AE very likely related to any study drug [4]: 1 (16.7%) n (%)
- subjects with at least one SAE [4]: 0 n (%)
- subjects with at least one fatal AE [4]: 0 n (%)
- subjects with at least one grade 1 AE [4]: 5 (83.3%) n (%)
- subjects with at least one grade 2 AE [4]: 1 (16.7%) n (%)
- subjects with at least one grade 3 or 4 AE [4]: 0 n (%)
- subjects with high values for the monocytes/leukocytes ratio (non-graded) [4]: 4 (66.7%) n (%)
- subjects with low erythrocyte count (non-graded) [4]: 3 (50.0%) n (%)
- treatment-related AE: Abdominal pain [4]: 0 n (%)
- treatment-related AE: Any AE [4]: 3 (50.0%) n (%)
- treatment-related AE: Arthralgia [4]: 1 (16.7%) n (%)
- treatment-related AE: Dry skin [4]: 1 (16.7%) n (%)
- treatment-related AE: Dyspnoea [4]: 1 (16.7%) n (%)
- treatment-related AE: Eye disorders [4]: 1 (16.7%) n (%)
- treatment-related AE: Gastrointestinal disorders [4]: 1 (16.7%) n (%)
- treatment-related AE: Headache [4]: 1 (16.7%) n (%)
- treatment-related AE: Nausea [4]: 1 (16.7%) n (%)
- treatment-related AE: Nervous system disorders [4]: 1 (16.7%) n (%)
- treatment-related AE: Respiratory, thoracic and mediastinal disorders [4]: 1 (16.7%) n (%)
- treatment-related AE: Retching [4]: 1 (16.7%) n (%)
- treatment-related AE: Retinal exudates [4]: 1 (16.7%) n (%)
- treatment-related AE: Skin and subcutaneous tissue disorders [4]: 1 (16.7%) n (%)
- vital signs: Respiratory rate (brpm) Grade 1 [4]: 4 (66.7%) n (%)
- vital signs: SaO2 (%) 95% to <98% [4]: 5 (83.3%) n (%)
- vital signs: Standing DBP (mmHg) Grade 1 [4]: 2 (33.3%) n (%)
- vital signs: Standing DBP (mmHg) Grade 2 [4]: 2 (33.3%) n (%)
- vital signs: Standing DBP (mmHg) Grade 3 [4]: 2 (33.3%) n (%)
- vital signs: Standing SBP (mmHg) Grade 1 [4]: 3 (50.0%) n (%)
- vital signs: Standing SBP (mmHg) Grade 2 [4]: 0 n (%)
- vital signs: Standing SBP (mmHg) Low [4]: 2 (33.3%) n (%)
- vital signs: Standing pulse (bpm) High [4]: 3 (50.0%) n (%)
- vital signs: Supine DBP (mmHg) Grade 1 [4]: 2 (33.3%) n (%)
- vital signs: Supine SBP (mmHg) Grade 1 [4]: 1 (16.7%) n (%)
- vital signs: Supine SBP (mmHg) Low [4]: 0 n (%)
- vital signs: Supine pulse (bpm) Low [4]: 1 (16.7%) n (%)
- lab toxicity: LDL cholesterol (mmol/L, direct), upwards, Grade 1 ([4]; n = 1 with data): 1 (100.0%) n (%)
- lab toxicity: Pancreatic amylase (U/L), upwards, Grade 1 ([4]; n = 2 with data): 1 (50.0%) n (%)
